Results from patent US20120270914A1, “SPLIT-LUCIFERASE C-MYC SENSOR AND USES THEREOF” (THE BOARD OF TRUSTEES OF THE LELAND STANFORD JUNIOR …, priority 2011, published 2012).
pIC50: −log10 of the molar value.

What was measured:
c-Myc [1] = assay: Drug inhibition assay: BLI of SKBR3 stable cells constitutively expressing the c-Myc sensor (SK ST), normalized to full-length FL cells (SK FST); type: cell-based, human; settings: for reduction in complemented FL activity compared between drugs: SK ST cells normalized to SK FST cells; for complemented FL activity: SK ST cells, after normalization to effect on FL activity of SK FST cells, PD98059 2 h, U0126 1 h, AT 16 h
Experimental: (§1) To test the ability of the sensor to monitor c-Myc phosphorylation levels on drug treatment, the SKBR3 and 293T stable cells (SK ST and 293T ST) were established that constitutively express the sensor. SKBR3 and 293T stable cells were also constructed that constitutively express the full-length FL (SK FST and 293T FST) for the control of direct drug effect on FL activity.
(§2) Luciferase Activity Assay: BLI of luciferase activity in intact cells was performed as described previously (Hann (2006) Semin Cancer Biol 16(4):288-302). In brief, 24 h after transfection, culture medium was replaced with a PBS solution (pH 7.0) of 45 μg/mL D-Luc for FL imaging or of 10 μg/mL of Clz for RL imaging with the IVIS BLI system (Xenogen). Images were acquired at 2-min intervals until the peak signal was reached. The photon output of FL or RL imaging in transiently transfected cells was normalized to co-expressed RL or FL activity, respectively, measured by an in vitro luminometry assay as described previously (Chan et al. (2008) Cancer Res. 68:216-226), then normalized to the total protein in the cell lysates, measured by the BioRad DC protein assay as directed by the manufacturer. In stable cells, the photon output of FL imaging was normalized to the total protein in the cell lysates.
(§3) Drug Inhibition Assay: SKBR3 stable cells constitutively expressing the sensor system (SK ST) or the full-length FL (SK FST) were treated with PD98059 (Cell Signaling) for 2 h, U0126 (Cell Signaling) for 1 h, and purified AT (Sequoia Research Products) for 16 h at the indicated concentrations and imaged with D-Luc in the IVIS 50 BLI system (FIGS. 6A and 6B, and FIGS. 10A-12D). In addition, 293T stable cells constitutively expressing the sensor system (293T ST) or the full-length FL (293T FST) were treated with AT for 16 h at the indicated concentrations (FIGS. 6A and 6B, and FIGS. 13A-13D) and imaged with D-Luc in the IVIS 50 system. The photon output of FL imaging was normalized to the total protein content, and the FL activity of SK ST or 293T ST was normalized to that of SK FST or 293T FST, respectively. SKBR3 and 293T cells were treated as above and lysed for Western blot analysis of phospho c-Myc, c-Myc, and β-actin proteins. The correlation coefficient between the fold change of normalized FL activity and the fold change of normalized phospho c-Myc level (phospho c-Myc/β-actin) was determined based on the R^2 value.

c-Myc [2] = assay: Drug inhibition assay: BLI of 293T stable cells expressing the c-Myc sensor (293T ST), normalized to 293T FST; type: cell-based, human; settings: 293T ST cells; after normalization to FL activity of 293T FST cells; AT 16 h
Experimental: as §1
as §2, with “lysates. […]” for “lysates.”

c-Myc [3] = assay: Western blot analysis of endogenous phospho c-Myc in SKBR3 cells; type: cell-based, human; settings: for endogenous c-Myc phosphorylation level: Western blot
Experimental: (§4) FIGS. 26A and 26B illustrate the inhibition of endogenous c-Myc. FIG. 26A: Western blot analysis of SKBR3 cells after NTZ treatment was performed using phospho c-Myc, c-Myc protein, and β-actin antibodies. […] The fold-change of phospho c-Myc level was plotted against the log scale of NTZ concentration.
(§5) Western Blot Analysis: Total cell lysates were collected using 1× cell lysis buffer (Cell Signaling), as directed by the manufacturer. The protein concentration was determined using the BioRad DC protein assay. SDS/PAGE analysis of 50 μg of protein was transferred to an lmmobilon-P membrane (Millipore). Anti-phosphor-c-Myc (Thr58/Ser62) and anti-c-Myc antibody (Cell Signaling) were used to visualize the phospho c-Myc and c-Myc protein, respectively, as directed by the manufacturer. Anti-FLuc-HRP antibody was used to detect the FL fragments, as directed by the manufacturer (Sigma-Aldrich). β-actin protein was used as a loading control and detected by anti-β-actin antibody (Sigma-Aldrich). Immunoblots were developed using the Pierce ECL Kit, as directed by the manufacturer. Protein levels were determined by quantifying the band intensities on Western blot analysis using ImageJ's ROI manager.
as §3

c-Myc [4] = assay: Western blot analysis of endogenous phospho c-Myc in 293T cells; type: cell-based, human
Experimental: as §5, with “Immunoblots were developed using the Pierce ECL Kit, as directed by the manufacturer.” left out
Drug Inhibition Assay: SKBR3 stable cells constitutively expressing the sensor system (SK ST) or the full-length FL (SK FST) were treated with PD98059 (Cell Signaling) for 2 h, U0126 (Cell Signaling) for 1 h, and purified AT (Sequoia Research Products) for 16 h at the indicated concentrations and imaged with D-Luc in the IVIS 50 BLI system (FIGS. 6A and 6B, and FIGS. 10A-12D). […] The correlation coefficient between the fold change of normalized FL activity and the fold change of normalized phospho c-Myc level (phospho c-Myc/β-actin) was determined based on the R^2 value.

c-Myc [5] = assay: Hydrodynamic injection of the c-Myc sensor and BLI in Eμ-tTA/Tet-O-MYC transgenic mice; type: in vivo
Text: To test the in vivo application of the sensor system, SKBR3 cells were first transiently transfected separately with equal DNA molar amounts of the vectors pcDNA3.1(+), GSK 35-433-CFL/NFL-c-Myc or GSK 35-433-CFL/NFL-c-Myc T851 and implanted them subcutaneously in different locations in each nude mouse (n=3; FIG. 7A). hRL was also co-expressed for control of transfection efficiency. […] However, on intraperitoneal injection of the FL substrate D-Luciferin (D-Luc), xenografts carrying pcDNA3.1(+) had very low complemented FL activity, whereas those carrying GSK 35-433-CFL/NFL-c-Myc had 10.6-fold higher activity. Those carrying GSK 35-433-CFL/NFL-c-Myc T851 had 4.7-fold higher activity after normalization to their hRL activity (FIG. 7C). Thus, the complemented FL activity determined by the phosphorylation status of NFL-c-Myc can be imaged and quantified in a mouse xenograft model. The sensor system was also transiently expressed in the liver of two transgenic mice using hydrodynamic injection. These mice carried a liver-specific transgene of c-Myc under control of the Tet system (Shachaf et al. (2007) Blood 110: 2674-2684).
Both mice had doxycycline discontinued, followed by a 29-day course of treatment with AT in one mouse and with PBS in the other mouse. […] This signal reduction was consistent with the reduced endogenous c-Myc phosphorylation and the histological changes in the liver tissue samples (FIG. 7E).
Hydrodynamic Injection: Eμ-tTA/Tet-O-MYC transgenic mice (Shachaf et al. (2007) Blood 110: 2674-2684) (n=2) were removed from doxycycline treatment at 8 wk of age and underwent gavage with AT or PBS as described above. At 29 d after treatment, these two mice underwent imaging studies to characterize the liver phospho c-Myc level after hydrodynamic injection (Frame et al., (2001) Mol. Cell 7: 1321-1327) of the c-Myc sensor. […]

[6] = test system: SK ST and SK FST xenografts; assay: BLI of SK ST and SK FST subcutaneous xenografts in nude mice under AT treatment; type: in vivo
Experimental: The mice underwent gavage with AT (20 μL, 1.25 mM; n=5) or with PBS (20 μL; n=5) every other day.
BLI of Living Mice: BLI of mouse xenografts was performed with the IVIS Spectrum optical imaging system (Xenogen) as described previously (Chan et al. (2008) Cancer Res. 68:216-226, incorporated herein by refrence in its entirety), with some modifications. At 4 h after transient transfection with the indicated constructs (FIG. 7A), 5×10^6 SKBR3 cells were implanted subcutaneously into the indicated locations of nude mice (nu/nu; n=3). At 16 h after cell implantation, a Clz PBS (0.3 μg/μL; 100 μL) solution was injected intravenously for RL imaging. Then, 8 h later, FL imaging was acquired with D-Luc PBS solution (45 μg/μL; 100 μL) via intraperitoneal injection. Subsequently, 5×10^6 each of SK ST and SK FST cells were implanted subcutaneously into nude mice (nu/nu; n=10) as indicated (FIG. 8A). FL imaging was performed 1 day after the implantation and every other day thereafter. After each FL imaging, half of the mice underwent gavage with AT PBS solution (1.25 mM; 20 μL), and the other half did so with PBS only (20 μL). After 23 d of treatment, the mice were killed, and xenograft tissue samples were collected for Western blot analysis of phospho c-Myc, c-Myc, and α-tubulin proteins.

c-Myc [7] = settings: Shachaf et al. 2007; cited from earlier work
c-Myc [8] = assay: Phospho c-Myc level in lymphoma cells; type: cell-based; settings: read-out: IC50, inhibition of phospho c-Myc level
Experimental: as §4

c-Myc [9] = assay: Phospho c-Myc level in sarcoma cells; type: cell-based; settings: read-out: IC50, inhibition of phospho c-Myc level
Experimental: as §4

[10] = test system: SK-ST subcutaneous tumor xenograft; assay: SK-ST subcutaneous tumor xenograft mouse model under NTZ treatment; type: in vivo; settings: NTZ vs CMC treated groups, up to 27 days after implantation
Text: FIGS. 27A and 27B illustrate the efficacy of NTZ in a SK-ST subcutaneous tumor xenograft mouse model. FIG. 27A: SK-ST stable cells were subcutaneously implanted as indicated and treated with NTZ or CMC. Representative images of FL imaging at indicated days of treatment are shown. FIG. 27B: Photon output of SK-ST cells with NTZ or CMC treatment is plotted against days after implantation. * P<0.05. […] FIG. 28A: Representative photographs of removed tumors from CMC or NTZ treated mice 27 days after implantation. FIG. 28B: Plot of caliper measured tumor sizes of NTZ or CMC treated groups at different days after implantation. *P<0.05, **P<0.01. FIGS. 29A and 29B illustrate immunohistochemistry and western blot analysis of NTZ treated tumor samples. FIG. 29A: Representative images of H&E, Ki67 and caspase-3 IHC staining of tumor tissue samples from each group. FIG. 29B: Western blot analysis of tumor tissue samples using phospho c-Myc, c-Myc and α-tubulin antibodies.

[11] = test system: NFL-c-MycS62A mutant sensor; assay: BLI of SKBR3 cells transiently transfected with the S62A mutant sensor; type: cell-based, human; settings: PD98059 1 h
Experimental: FIG. 14A is a digital image showing the NFL-c-Myc WT construct or the NFL-c-MycS62A mutant construct transiently transfected into SKBR3 cells with GSK 35-433-CFL construct and subjected to PD98059 of indicated concentration for 1 h, followed by BLI.
FIG. 14B is a graph showing FL activity normalized to co-transfected RL activity and the total protein content and plotted against the drug concentration.
These differential signal inhibitions also were correlated with the decreased endogenous c-Myc phosphorylation level, as shown in FIG. 6A.

c-Myc [12] = settings: Hydbring et al. 2009; cited from earlier work

CC(C)c1c(C(=O)Nc2ccccc2)c(-c2ccccc2)c(-c2ccc(F)cc2)n1CC[C@@H](O)C[C@@H](O)CC(=O)O [AT, Atorvastatin]
reduction in complemented FL activity compared between drugs (c-Myc [1]): greater reduction in complemented FL activity with lower drug concentrations than did U0126
complemented FL activity (c-Myc [1]): dose-dependent reduction
complemented FL activity (c-Myc [2]): dose-dependent increase
endogenous c-Myc phosphorylation level (c-Myc [3]): decreased
endogenous c-Myc phosphorylation level (c-Myc [4]): increase
liver tumor size (c-Myc [5]; 29-day treatment, AT vs PBS, one mouse each): no significant difference
endogenous c-Myc phosphorylation in liver tissue samples (c-Myc [5]; Western blot after 29-day treatment): reduced
complemented FL activity in liver (c-Myc [5]; on addition of D-Luc, AT vs PBS treated mouse): much lower
c-Myc phosphorylation levels in tumor tissue samples ([6]; 23 d after implantation, Western blot): decreased
sensor signal (complemented FL activity of SK ST normalized to SK FST) ([6]; AT group): sustained decrease
tumor size ([6]; AT vs PBS group): no detectable difference
tumor growth ([6]; eventual effect of AT): reduced tumor growth
complemented FL activity of SK ST xenografts ([6]; from 10 d after implantation, gavage AT 20 μL 1.25 mM every other day): increased only slightly
FL activity of SK FST xenografts ([6]; up to about 18 d after implantation): higher in the PBS-treated group compared with the AT-treated group
c-Myc-induced lymphomagenesis (c-Myc [7]): preventing
phosphorylation of c-Myc (c-Myc [7]): reduce

CC(=O)Oc1ccccc1C(=O)Nc1ncc([N+](=O)[O-])s1 [NTZ, nitazoxanide]
luciferase activity when cells are exposed to nitazoxanide (c-Myc [1]; in vitro validation of the assay system): decrease in luciferase activity
pIC50 (c-Myc [3]; read-out: IC50, inhibition of phospho c-Myc level): 6.91
pIC50 (c-Myc [8]): 6.36
pIC50 (c-Myc [9]): 7.92
tumor growth (caliper measured tumor sizes) [10]: inhibition of tumor growth

COc1cccc(-c2cc(=O)c3ccccc3o2)c1N [PD98059]
complemented FL activity (c-Myc [1]): dose-dependent reduction
response of mutant sensor to phosphorylation inhibition of c-Myc [11]: did not respond
endogenous c-Myc phosphorylation level (c-Myc [3]): decreased
c-Myc phosphorylation level in vitro (c-Myc [12]): decrease

N#CC(=C(/N)Sc1ccccc1N)/C(C#N)=C(\N)Sc1ccccc1N [U0126]
reduction in complemented FL activity compared between drugs (c-Myc [1]): greater reduction than PD98059
complemented FL activity (c-Myc [1]): dose-dependent reduction
endogenous c-Myc phosphorylation level (c-Myc [3]): decreased
c-Myc phosphorylation level in vitro (c-Myc [12]): decrease
